Source: PubChem BioAssay (NCI)
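A five-concentration, 48-hour dose response in 96-well plates underlies each endpoint, interpolated linearly between surrounding concentrations. TGI denotes the concentration required for complete inhibition of growth.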

Assays:
Experiment in all cases: DTP human tumour cell line panel, 48 h
CAKI-1 renal = tested on: CAKI-1 renal
U251 CNS = tested on: U251 CNS
SR leukemia = tested on: SR leukemia
RXF 393 renal = tested on: RXF 393 renal
BT-549 breast = tested on: BT-549 breast
NCI-H460 lung = tested on: NCI-H460 lung
DU-145 prostate = tested on: DU-145 prostate
ACHN renal = tested on: ACHN renal
KM12 colon = tested on: KM12 colon
SW-620 colon = tested on: SW-620 colon
HL-60(TB) leukemia = tested on: HL-60(TB) leukemia
SK-MEL-5 melanoma = tested on: SK-MEL-5 melanoma
COLO 205 colon = tested on: COLO 205 colon
HCC-2998 colon = tested on: HCC-2998 colon
UACC-257 melanoma = tested on: UACC-257 melanoma
SK-OV-3 ovarian = tested on: SK-OV-3 ovarian
OVCAR-8 ovarian = tested on: OVCAR-8 ovarian
NCI-H23 lung = tested on: NCI-H23 lung
LOX IMVI melanoma = tested on: LOX IMVI melanoma
RPMI-8226 leukemia = tested on: RPMI-8226 leukemia
SN12C renal = tested on: SN12C renal
HOP-62 NSCLC = tested on: HOP-62 NSCLC
SF-539 CNS = tested on: SF-539 CNS
NCI-H522 lung = tested on: NCI-H522 lung
IGROV1 ovarian = tested on: IGROV1 ovarian
OVCAR-5 ovarian = tested on: OVCAR-5 ovarian
SNB-75 CNS = tested on: SNB-75 CNS
SK-MEL-28 melanoma = tested on: SK-MEL-28 melanoma
MALME-3M melanoma = tested on: MALME-3M melanoma
NCI-H226 lung = tested on: NCI-H226 lung
K-562 leukemia = tested on: K-562 leukemia
EKVX NSCLC = tested on: EKVX NSCLC
A549 NSCLC = tested on: A549 NSCLC
UACC-62 melanoma = tested on: UACC-62 melanoma
TK-10 renal = tested on: TK-10 renal
MDA-N = tested on: MDA-N
HS 578T breast = tested on: HS 578T breast
SNB-19 CNS = tested on: SNB-19 CNS
HOP-92 NSCLC = tested on: HOP-92 NSCLC
MOLT-4 leukemia = tested on: MOLT-4 leukemia
HT29 colon = tested on: HT29 colon
HCT-15 colon = tested on: HCT-15 colon
MCF7 breast = tested on: MCF7 breast
MDA-MB-435 = tested on: MDA-MB-435
CCRF-CEM leukemia = tested on: CCRF-CEM leukemia
UO-31 renal = tested on: UO-31 renal
OVCAR-4 ovarian = tested on: OVCAR-4 ovarian
NCI/ADR-RES ovarian = tested on: NCI/ADR-RES ovarian
786-0 renal = tested on: 786-0 renal
OVCAR-3 ovarian = tested on: OVCAR-3 ovarian
SK-MEL-2 melanoma = tested on: SK-MEL-2 melanoma
HCT-116 colon = tested on: HCT-116 colon
A498 renal = tested on: A498 renal
SF-268 CNS = tested on: SF-268 CNS
MDA-MB-231 breast = tested on: MDA-MB-231 breast
M14 melanoma = tested on: M14 melanoma
T-47D breast = tested on: T-47D breast
PC-3 prostate = tested on: PC-3 prostate
SF-295 CNS = tested on: SF-295 CNS

## C=CCN(CCNS(=O)(=O)c1ccc(C)cc1)S(=O)(=O)c1ccc(C)cc1
CAKI-1 renal
  TGI: > 100 µM
U251 CNS
  TGI: > 100 µM
SR leukemia
  TGI: > 100 µM
RXF 393 renal
  TGI: > 100 µM
BT-549 breast
  TGI: 61 µM
NCI-H460 lung
  TGI: > 71.7 µM
DU-145 prostate
  TGI: > 100 µM
ACHN renal
  TGI: > 100 µM
KM12 colon
  TGI: > 100 µM
SW-620 colon
  TGI: > 100 µM
HL-60(TB) leukemia
  TGI: 47.6 µM
SK-MEL-5 melanoma
  TGI: 12.1 µM
COLO 205 colon
  TGI: > 60.5 µM
HCC-2998 colon
  TGI: > 100 µM
UACC-257 melanoma
  TGI: > 100 µM
SK-OV-3 ovarian
  TGI: > 100 µM
OVCAR-8 ovarian
  TGI: > 100 µM
NCI-H23 lung
  TGI: > 95.5 µM
LOX IMVI melanoma
  TGI: > 100 µM
RPMI-8226 leukemia
  TGI: 73.5 µM
SN12C renal
  TGI: > 100 µM
HOP-62 NSCLC
  TGI: > 100 µM
SF-539 CNS
  TGI: > 100 µM
NCI-H522 lung
  TGI: > 100 µM
IGROV1 ovarian
  TGI: > 100 µM
OVCAR-5 ovarian
  TGI: > 100 µM
SNB-75 CNS
  TGI: > 100 µM
SK-MEL-28 melanoma
  TGI: > 100 µM
MALME-3M melanoma
  TGI: > 100 µM
NCI-H226 lung
  TGI: > 100 µM
K-562 leukemia
  TGI: > 100 µM
EKVX NSCLC
  TGI: 96.9 µM
A549 NSCLC
  TGI: > 100 µM
UACC-62 melanoma
  TGI: > 100 µM
TK-10 renal
  TGI: > 100 µM
MDA-N
  TGI: > 100 µM
HS 578T breast
  TGI: > 100 µM
SNB-19 CNS
  TGI: > 100 µM
HOP-92 NSCLC
  TGI: > 100 µM
MOLT-4 leukemia
  TGI: > 84.5 µM
HT29 colon
  TGI: > 100 µM
HCT-15 colon
  TGI: > 100 µM
MCF7 breast
  TGI: > 84.2 µM
MDA-MB-435
  TGI: > 100 µM
CCRF-CEM leukemia
  TGI: > 100 µM
UO-31 renal
  TGI: > 100 µM
OVCAR-4 ovarian
  TGI: > 100 µM
NCI/ADR-RES ovarian
  TGI: > 100 µM
786-0 renal
  TGI: > 100 µM
OVCAR-3 ovarian
  TGI: > 100 µM
SK-MEL-2 melanoma
  TGI: 94.3 µM
HCT-116 colon
  TGI: > 100 µM
A498 renal
  TGI: 26.8 µM
SF-268 CNS
  TGI: > 100 µM
MDA-MB-231 breast
  TGI: > 100 µM
M14 melanoma
  TGI: > 100 µM
T-47D breast
  TGI: > 100 µM
PC-3 prostate
  TGI: > 100 µM
SF-295 CNS
  TGI: > 100 µM

## COc1ccc(N=NC(=O)NC(CC(C)C)C(N)=O)cc1 (configuration not stated)
CAKI-1 renal
  TGI: > 31.6 µM
U251 CNS
  TGI: > 100 µM
SR leukemia
  TGI: > 100 µM
RXF 393 renal
  TGI: > 31.6 µM
BT-549 breast
  TGI: > 100 µM
NCI-H460 lung
  TGI: > 31.6 µM
DU-145 prostate
  TGI: > 100 µM
ACHN renal
  TGI: > 31.6 µM
KM12 colon
  TGI: > 100 µM
SW-620 colon
  TGI: > 100 µM
HL-60(TB) leukemia
  TGI: > 100 µM
SK-MEL-5 melanoma
  TGI: > 100 µM
COLO 205 colon
  TGI: 24.9 µM
HCC-2998 colon
  TGI: > 31.6 µM
UACC-257 melanoma
  TGI: > 31.6 µM
SK-OV-3 ovarian
  TGI: > 100 µM
OVCAR-8 ovarian
  TGI: > 100 µM
NCI-H23 lung
  TGI: > 100 µM
RPMI-8226 leukemia
  TGI: > 100 µM
SN12C renal
  TGI: > 31.6 µM
HOP-62 NSCLC
  TGI: > 100 µM
SF-539 CNS
  TGI: > 31.6 µM
NCI-H522 lung
  TGI: > 100 µM
IGROV1 ovarian
  TGI: > 100 µM
OVCAR-5 ovarian
  TGI: > 100 µM
SNB-75 CNS
  TGI: > 100 µM
SK-MEL-28 melanoma
  TGI: > 100 µM
MALME-3M melanoma
  TGI: > 100 µM
NCI-H226 lung
  TGI: > 100 µM
K-562 leukemia
  TGI: > 100 µM
EKVX NSCLC
  TGI: > 100 µM
A549 NSCLC
  TGI: > 31.6 µM
UACC-62 melanoma
  TGI: > 100 µM
TK-10 renal
  TGI: > 31.6 µM
MDA-N
  TGI: > 31.6 µM
HS 578T breast
  TGI: > 100 µM
SNB-19 CNS
  TGI: > 100 µM
HOP-92 NSCLC
  TGI: > 31.6 µM
MOLT-4 leukemia
  TGI: > 100 µM
HT29 colon
  TGI: > 100 µM
HCT-15 colon
  TGI: > 31.6 µM
MCF7 breast
  TGI: > 31.6 µM
MDA-MB-435
  TGI: > 100 µM
CCRF-CEM leukemia
  TGI: > 100 µM
UO-31 renal
  TGI: > 65.4 µM
OVCAR-4 ovarian
  TGI: > 31.6 µM
NCI/ADR-RES ovarian
  TGI: > 100 µM
786-0 renal
  TGI: > 31.6 µM
OVCAR-3 ovarian
  TGI: > 100 µM
SK-MEL-2 melanoma
  TGI: > 100 µM
HCT-116 colon
  TGI: > 31.6 µM
A498 renal
  TGI: > 31.6 µM
SF-268 CNS
  TGI: > 100 µM
MDA-MB-231 breast
  TGI: > 31.6 µM
M14 melanoma
  TGI: > 100 µM
T-47D breast
  TGI: > 100 µM
PC-3 prostate
  TGI: > 100 µM
SF-295 CNS
  TGI: > 100 µM
